Where a name gives a salt, the structure may show the parent alone.

Data set [1] deals with prostate 22RV1 cancer cells. As to the kind of experiment: Matrigel invasion assay. In kind it is cell-based, human. The conditions noted are these: 50 μM. As to the method:
FIG. 15: Compound 2 inhibits the proliferation, migration and invasion of cancer cells with low Lamin A/C expression. […] C) Quantification of transwell migration assays and matrigel invasion assays from the indicated low expressing cancer cell lines after treatment with 50 μM of compound 2.

Data set [2] can be described thus: Stability on exposure to light or air. In kind it is physicochemical.
In data set [3] the target is T1, NAT10 purified from HEK293 cells (Homo sapiens, UniProt Q9H0A0).
T1 construct: made in house; host or cells: HEK293 (transient transfection, anti-FLAG immunopurification, elution with triple-Flag peptide)
T1 sequence (Q9H0A0 1-1025): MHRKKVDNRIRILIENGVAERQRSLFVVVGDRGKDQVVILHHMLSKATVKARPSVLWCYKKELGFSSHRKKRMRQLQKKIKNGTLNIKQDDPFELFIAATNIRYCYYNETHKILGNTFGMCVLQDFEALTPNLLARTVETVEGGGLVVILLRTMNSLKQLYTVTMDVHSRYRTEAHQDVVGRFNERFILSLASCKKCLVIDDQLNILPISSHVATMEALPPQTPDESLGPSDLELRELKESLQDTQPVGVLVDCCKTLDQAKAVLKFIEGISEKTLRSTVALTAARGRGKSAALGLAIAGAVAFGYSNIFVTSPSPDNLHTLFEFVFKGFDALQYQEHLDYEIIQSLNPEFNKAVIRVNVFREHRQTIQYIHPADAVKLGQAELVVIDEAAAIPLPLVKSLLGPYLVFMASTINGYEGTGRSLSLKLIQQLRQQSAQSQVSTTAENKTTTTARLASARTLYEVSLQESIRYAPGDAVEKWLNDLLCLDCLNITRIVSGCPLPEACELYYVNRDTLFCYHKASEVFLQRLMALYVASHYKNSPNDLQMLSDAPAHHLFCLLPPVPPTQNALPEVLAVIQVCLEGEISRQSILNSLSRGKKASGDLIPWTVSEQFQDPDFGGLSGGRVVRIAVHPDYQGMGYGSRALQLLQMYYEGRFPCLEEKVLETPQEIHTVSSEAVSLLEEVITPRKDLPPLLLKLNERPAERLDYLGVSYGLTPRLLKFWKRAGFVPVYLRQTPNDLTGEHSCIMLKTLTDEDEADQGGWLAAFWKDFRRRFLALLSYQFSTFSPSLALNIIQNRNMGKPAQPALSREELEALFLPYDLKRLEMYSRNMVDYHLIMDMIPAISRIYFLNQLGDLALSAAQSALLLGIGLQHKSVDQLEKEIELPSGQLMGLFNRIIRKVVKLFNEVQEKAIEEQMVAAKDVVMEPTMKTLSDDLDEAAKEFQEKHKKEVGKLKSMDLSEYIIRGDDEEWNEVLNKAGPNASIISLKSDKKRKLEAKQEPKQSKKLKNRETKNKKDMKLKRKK
As to the kind of experiment: Lysine acetyltransferase (KAT) assay with tubulin substrate. In kind it is biochemical. The note with it: compounds at 50 μM. As to the method:
HEK293 cells were transiently transfected with NAT10 constructs and harvested after 48 hours in PBS. Cells were lysed for 5 minutes at room temperature in IP lysis buffer (20 mM Tris pH 7.5, 40 mM NaCl, 2 mM MgCl2, 0.5% NP-40) freshly supplemented with 50 U/ml benzonase and EDTA-free protease inhibitor cocktail (Roche). After this initial lysis step, NaCl concentration was adjusted to 450 mM and samples were incubated at 4° C. with rotation. Lysates were clarified by centrifugation (13,200 rpm, 20 minutes at 4° C.), and after recovery NaCl concentration was equilibrated to 150 mM. Lysates were used for immunoprecipitation reaction in IP buffer (25 mM Tris pH 7.5, 150 mM NaCl, 1.5 mM DTT, 10% glycerol, 0.5% NP-40) supplemented with protease inhibitors. Target proteins were captured with anti-FLAG antibody (M2, Sigma-Aldrich) coupled to protein A/G-Dynabeads (Life Sciences). Complexes were washed with IP buffer containing incrementally increasing amounts of NaCl (250 mM, 500 mM, and 1M). Following this, the immuno-complexes were washed in TBS containing gradually decreasing amounts on NaCl (1M, 500 mM, 250 mM, and 150 mM). At this point, elution was carried out using excess triple-Flag peptide (Sigma Aldrich). Eluted proteins were loaded on a gel and the purification was verified by Silver Staining (SilverQuest kit, Life Sciences). […]

Data set [4] has as its system HGPS AG11498 cells. Briefly: Senescence-associated β-galactosidase in HGPS cells. It counts as cell-based, human. As to the method: The following KAT and KDAC inhibitors were used in the nuclear shape rescue screen, incubating cells with the molecules for 16 hours: trichostatin A (1 μM), sodium butyrate (5 mM), tubacin (10 μM), SAHA (5 μM), curcumin (10 μM), garcinol (50 μM), anacardic acid (1 μM), MB-3 (5 μM), 4-(4-chlorophenyl)-2-(2-cyclopentylidenehydrazinyl)thiazole (Compound 2) (50 μM), 4-(4-chlorophenyl)-2-(2-cyclopentylidene-1-(prop-2-yn-1-yl)hydrazinyl)thiazole (Compound 3) (50 μM) and cyclopentylidene-[4-(4-cyanophenyl)thiazol-2-yl)hydrazine (Compound 1) (Remodelin) (10 to 50 μM). For HGPS cellular fitness assays, Remodelin was incubated at 1 μM for 1 to 10 days, renewing the medium every 3 days. For long-term senescence assay, cells were kept and passaged in medium containing 1 μM Remodelin or DMSO only for 12 population doublings. Senescence was assessed after 8 days of Remodelin treatment when cells were at Population Doubling 12, and then after several weeks of Remodelin treatment, when cells reached Population Doubling 24 using the Senescence β-Galactosidase Staining Kit #9860 from Cell Signaling. Nocodazole, colchicine and latrunculin A (Sigma-Aldrich) were used at 200 ng/ml, 1 μg/ml and 1 μM respectively. Aphidicolin (Sigma-Aldrich) was used at 5 μg/ml for 16 h. Farnesyltransferase inhibitor FTI-277 was purchased from Tocris Bioscience and used at 5 μM. ATMi (KU55933) and ATRi (ATR-45) were obtained from Tocris Bioscience and from the Ohio State University respectively and used at 10 μM and 500 nM. Pifithrin alpha (Sigma-Aldrich) was used at 10 μM.

For the compound `Clc1ccc(-c2csc(NN=C3CCCC3)n2)cc1` [Compound 2, 4-(4-Chlorophenyl)-2-(2-cyclopentylidenehydrazinyl)thiazole Hydrochloride Salt], the “matrigel invasion of 22RV1 cells” value in data set [1] is listed as “no invasion upon treatment”. Also, in data set [2], the stability entry is given as “rapidly degraded upon exposure to light or air”.
Regarding `N#Cc1ccc(-c2csc(NN=C3CCCC3)n2)cc1` [Compound 1, 4-(4-Cyanophenyl)-2-(2-cyclopentylidenehydrazinyl)thiazole], the “NAT10 WT KAT activity towards tubulin” value in data set [3] was “abolished NAT10 WT KAT activity”. For the same compound, the “long-term senescence of HGPS cells” value in data set [4] (1 μM Remodelin, several weeks, 12 cell divisions (PDL 24)) is “prevented HGPS cell senescence even after several weeks of treatment”. The “senescence of HGPS cells (β-galactosidase positive cells)” value in data set [4] (HGPS AG11498, Remodelin 1 μM, Pifithrin alpha 10 μM) is “decreased senescence”. Further, the stability entry in data set [2] is “most potent and stable analogue of the series”.
For `C#CCN(N=C1CCCC1)c1nc(-c2ccc(Cl)cc2)cs1` [Compound 3, 4-(4-Chlorophenyl)-2-(2-cyclopentylidene-1-(prop-2-yn-1-yl)hydrazinyl)thiazole], the “NAT10 WT KAT activity towards tubulin” value in data set [3] is “abolished NAT10 WT KAT activity”.

The record behind these values is patent US9809562B2, “NAT10 modulators for treating or preventing laminopathies, aging and cancer” (CAMBRIDGE ENTERPRISE LIMITED, priority 2014, dated 2017).
